We go through six compounds from patent publication US20250084039A1, “4-SUBSTITUTED AMINOISOQUINOLINE DERIVATIVES” (Purdue Research Foundation, priority 2016, published 2025).

Holding throughout (assay): Reaction Biology HotSpot kinase assay
Common to all, as to type: biochemical

The target in one assay is LYN B (Homo sapiens (Human), UniProt P07948). To be noted: 500 nM compound; for inhibition at 0.5 µM: read-out: Percentage kinase inhibition LYN B. Summed up:
(§1)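 Each compound was tested at 500 nM, with 33P incorporation from ATP (100 μM final, including [γ-33P]ATP) measured by P81 paper capture after a 2 h room-temperature reaction.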

In the next assay the target is CDK9/cyclin T1 (Homo sapiens (Human), UniProt P50750). To be noted: 500 nM compound; for inhibition at 0.5 µM: read-out: Percentage kinase inhibition CDK9/cyclin T1. Summed up:
as §1

The next assay concerns the target TAOK1 (Homo sapiens (Human), UniProt Q7L7X3). The settings on record: 500 nM compound; for inhibition at 0.5 µM: read-out: Percentage kinase inhibition TAOK1. Summed up: as §1
For the next assay, the target named is CTK/MATK (Homo sapiens (Human), UniProt P42679). The settings on record: 500 nM compound; for inhibition at 0.5 µM: read-out: Percentage kinase inhibition CTK/MATK. Summed up: as §1
A further assay has as its target ROCK1 (Homo sapiens (Human), UniProt Q13464). To be noted: 500 nM compound; for inhibition at 0.5 µM: read-out: Percentage kinase inhibition ROCK1. The method in brief: as §1
Another assay concerns the target TYK2 (Homo sapiens (Human), UniProt P29597). To be noted: 500 nM compound; for inhibition at 0.5 µM: read-out: Percentage kinase inhibition TYK2. Summed up:
as §1

The next assay addresses KSR1 (Homo sapiens (Human), UniProt Q8IVT5). To be noted: 500 nM compound; for inhibition at 0.5 µM: read-out: Percentage kinase inhibition KSR1. Summed up: as §1
The target of another assay is Aurora A (Homo sapiens (Human), UniProt O14965). To be noted: 500 nM compound; for inhibition at 0.5 µM: read-out: Percentage kinase inhibition Aurora A. The method in brief:
as §1

In the next assay the target is HIPK1 (Homo sapiens (Human), UniProt Q86Z02). The settings on record: 500 nM compound; for inhibition at 0.5 µM: read-out: Percentage kinase inhibition HIPK1. Summed up: as §1
In a further assay the target is JNK1 (Homo sapiens (Human), UniProt P45983). To be noted: 500 nM compound; for inhibition at 0.5 µM: read-out: Percentage kinase inhibition JNK1. Summed up:
as §1

The target of a further assay is CDK6/cyclin D3 (Homo sapiens (Human), UniProt Q00534). To be noted: 500 nM compound; for inhibition at 0.5 µM: read-out: Percentage kinase inhibition CDK6/cyclin D3. Summed up:
as §1

A further assay has as its system RAF1. To be noted: 500 nM compound. The method in brief:
as §1

The target of the next assay is PDK1/PDHK1 (Homo sapiens (Human), UniProt Q15118). The settings on record: 500 nM compound; for inhibition at 0.5 µM: read-out: Percentage kinase inhibition PDK1/PDHK1. The method in brief:
as §1

For a further assay, the target named is PKD2/PRKD2 (Homo sapiens (Human), UniProt Q9BZL6). To be noted: 500 nM compound; for inhibition at 0.5 µM: read-out: Percentage kinase inhibition PKD2/PRKD2. Summed up:
as §1

The next assay has as its target MST4 (Homo sapiens (Human), UniProt Q9P289). To be noted: 500 nM compound; for inhibition at 0.5 µM: read-out: Percentage kinase inhibition MST4. Summed up: as §1
The target in a further assay is CDK2/cyclin A (Homo sapiens (Human), UniProt P24941). To be noted: 500 nM compound; for inhibition at 0.5 µM: read-out: Percentage kinase inhibition CDK2/cyclin A. The method in brief:
as §1

For a further assay, the target named is HCK (Homo sapiens (Human), UniProt P08631). To be noted: 500 nM compound; for inhibition at 0.5 µM: read-out: Percentage kinase inhibition HCK. Summed up:
as §1

Another assay concerns the target RSK2 (Homo sapiens (Human), UniProt P51812). The settings on record: 500 nM compound; for inhibition at 0.5 µM: read-out: Percentage kinase inhibition RSK2. Summed up:
as §1

A further assay deals with PAK1 (Homo sapiens (Human), UniProt Q13153). The settings on record: 500 nM compound; for inhibition at 0.5 µM: read-out: Percentage kinase inhibition PAK1. The method in brief:
as §1

The target in another assay is RET (Homo sapiens (Human), UniProt P07949). To be noted: 500 nM compound; for inhibition at 0.5 µM: read-out: Percentage kinase inhibition RET. The method in brief: as §1
Another assay addresses EPHA3 (Homo sapiens (Human), UniProt P29320). The settings on record: 500 nM compound; for inhibition at 0.5 µM: read-out: Percentage kinase inhibition EPHA3. The method in brief:
as §1

The target of the next assay is BRK (Homo sapiens (Human), UniProt Q13882). The settings on record: 500 nM compound; for inhibition at 0.5 µM: read-out: Percentage kinase inhibition BRK. The method in brief: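 Compounds were screened at one concentration, 500 nM, in a radiometric kinase reaction. After a 20-minute preincubation with enzyme and substrate in pH 7.5 HEPES buffer (1% DMSO), the mixture received 100 μM ATP containing [γ-33P]ATP and was left 2 h at room temperature.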

The target of another assay is P38a/MAPK14 (Homo sapiens (Human), UniProt Q16539). The settings on record: 500 nM compound; for inhibition at 0.5 µM: read-out: Percentage kinase inhibition P38a/MAPK14. Summed up:
as §1

The target in the next assay is ZAP70 (Homo sapiens (Human), UniProt P43403). The settings on record: 500 nM compound; for inhibition at 0.5 µM: read-out: Percentage kinase inhibition ZAP70. The method in brief:
as §1

Another assay has as its target IRR/INSRR (Homo sapiens (Human), UniProt P14616). The settings on record: 500 nM compound; for inhibition at 0.5 µM: read-out: Percentage kinase inhibition IRR/INSRR. Summed up: as §1
Another assay has as its target FYN (Homo sapiens (Human), UniProt P06241). The settings on record: 500 nM compound; for inhibition at 0.5 µM: read-out: Percentage kinase inhibition FYN. The method in brief:
as §1

For another assay, the target named is MELK (Homo sapiens (Human), UniProt Q14680). The settings on record: 500 nM compound; for inhibition at 0.5 µM: read-out: Percentage kinase inhibition MELK. Summed up: as §1
The target of another assay is JAK2 (Homo sapiens (Human), UniProt O60674). The settings on record: 500 nM compound; for inhibition at 0.5 µM: read-out: Percentage kinase inhibition JAK2. The method in brief: as §1
The next assay deals with MEK1 (Homo sapiens (Human), UniProt Q02750). To be noted: 500 nM compound; for inhibition at 0.5 µM: read-out: Percentage kinase inhibition MEK1. The method in brief: as §1
For another assay, the target named is FMS (Homo sapiens (Human), UniProt P07333). The settings on record: 500 nM compound; for inhibition at 0.5 µM: read-out: Percentage kinase inhibition FMS. Summed up: as §1
For the next assay, the target named is c-Src (Homo sapiens (Human), UniProt P12931). The settings on record: 500 nM compound; for inhibition at 0.5 µM: read-out: Percentage kinase inhibition c-Src. Summed up:
as §1

Sequence of CDK6/cyclin D3 (Q00534 whole entry): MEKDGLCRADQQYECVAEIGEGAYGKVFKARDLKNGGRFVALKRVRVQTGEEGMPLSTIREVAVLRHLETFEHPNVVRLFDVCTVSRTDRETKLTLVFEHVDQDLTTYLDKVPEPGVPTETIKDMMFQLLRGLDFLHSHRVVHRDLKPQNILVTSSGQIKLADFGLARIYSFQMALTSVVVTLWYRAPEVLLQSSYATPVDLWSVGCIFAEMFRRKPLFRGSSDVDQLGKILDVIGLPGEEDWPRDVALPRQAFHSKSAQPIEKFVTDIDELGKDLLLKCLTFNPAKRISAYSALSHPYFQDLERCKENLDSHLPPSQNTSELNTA
Sequence of CDK6/cyclin D3 (P30281 whole entry partner): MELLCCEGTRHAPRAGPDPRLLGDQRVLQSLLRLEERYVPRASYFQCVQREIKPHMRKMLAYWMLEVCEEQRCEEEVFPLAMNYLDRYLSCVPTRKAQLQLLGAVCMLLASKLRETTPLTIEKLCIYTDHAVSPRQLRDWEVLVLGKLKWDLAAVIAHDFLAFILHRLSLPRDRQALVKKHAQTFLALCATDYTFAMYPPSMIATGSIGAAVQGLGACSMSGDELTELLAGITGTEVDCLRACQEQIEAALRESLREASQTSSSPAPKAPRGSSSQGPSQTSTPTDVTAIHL
Sequence of FMS (P07333 20-972): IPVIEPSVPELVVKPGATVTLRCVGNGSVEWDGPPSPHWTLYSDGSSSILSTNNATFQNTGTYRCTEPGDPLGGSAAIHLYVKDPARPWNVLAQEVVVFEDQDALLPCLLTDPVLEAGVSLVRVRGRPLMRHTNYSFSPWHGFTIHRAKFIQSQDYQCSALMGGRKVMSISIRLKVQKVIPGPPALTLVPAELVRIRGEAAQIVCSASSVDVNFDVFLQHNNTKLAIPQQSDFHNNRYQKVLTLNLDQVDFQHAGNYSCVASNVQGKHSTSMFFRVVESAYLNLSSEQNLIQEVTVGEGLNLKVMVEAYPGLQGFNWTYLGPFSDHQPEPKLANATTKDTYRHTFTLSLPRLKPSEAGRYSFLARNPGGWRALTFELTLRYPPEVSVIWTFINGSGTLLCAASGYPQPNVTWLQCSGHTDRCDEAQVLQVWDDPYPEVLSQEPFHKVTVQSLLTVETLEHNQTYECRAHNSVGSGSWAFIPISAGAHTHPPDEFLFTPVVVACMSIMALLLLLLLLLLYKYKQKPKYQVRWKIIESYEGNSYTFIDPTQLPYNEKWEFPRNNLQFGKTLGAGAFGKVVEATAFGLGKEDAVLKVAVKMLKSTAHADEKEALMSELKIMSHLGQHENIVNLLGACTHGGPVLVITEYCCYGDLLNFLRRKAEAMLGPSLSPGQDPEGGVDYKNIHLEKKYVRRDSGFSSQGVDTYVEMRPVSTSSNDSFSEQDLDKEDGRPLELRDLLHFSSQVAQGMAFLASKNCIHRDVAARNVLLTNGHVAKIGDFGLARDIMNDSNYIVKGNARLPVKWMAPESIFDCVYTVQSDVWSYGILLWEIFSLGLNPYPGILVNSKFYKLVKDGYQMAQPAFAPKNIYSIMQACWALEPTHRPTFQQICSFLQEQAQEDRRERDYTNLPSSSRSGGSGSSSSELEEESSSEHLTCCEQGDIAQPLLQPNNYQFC
Sequence of RSK2 (P51812 whole entry): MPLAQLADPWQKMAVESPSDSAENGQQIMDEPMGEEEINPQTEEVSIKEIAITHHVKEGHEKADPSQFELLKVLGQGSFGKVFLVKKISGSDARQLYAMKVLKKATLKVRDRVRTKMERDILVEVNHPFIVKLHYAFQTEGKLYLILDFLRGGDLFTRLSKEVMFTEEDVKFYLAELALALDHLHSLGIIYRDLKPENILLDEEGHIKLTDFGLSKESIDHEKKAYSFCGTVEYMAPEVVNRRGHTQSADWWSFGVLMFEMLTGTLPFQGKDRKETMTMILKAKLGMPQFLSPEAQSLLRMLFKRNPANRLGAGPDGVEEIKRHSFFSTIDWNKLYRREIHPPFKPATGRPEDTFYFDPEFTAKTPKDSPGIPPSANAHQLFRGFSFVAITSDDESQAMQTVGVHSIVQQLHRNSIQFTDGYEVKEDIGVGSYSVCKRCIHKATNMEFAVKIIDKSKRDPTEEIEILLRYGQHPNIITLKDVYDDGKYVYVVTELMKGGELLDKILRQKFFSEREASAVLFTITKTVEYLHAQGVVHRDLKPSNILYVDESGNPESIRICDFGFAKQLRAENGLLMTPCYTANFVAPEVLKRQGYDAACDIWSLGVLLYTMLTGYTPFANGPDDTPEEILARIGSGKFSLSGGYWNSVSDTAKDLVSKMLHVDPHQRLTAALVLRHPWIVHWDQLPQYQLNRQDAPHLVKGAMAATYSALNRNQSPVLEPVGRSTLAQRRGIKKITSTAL
Sequence of PKD2/PRKD2 (Q9BZL6 whole entry): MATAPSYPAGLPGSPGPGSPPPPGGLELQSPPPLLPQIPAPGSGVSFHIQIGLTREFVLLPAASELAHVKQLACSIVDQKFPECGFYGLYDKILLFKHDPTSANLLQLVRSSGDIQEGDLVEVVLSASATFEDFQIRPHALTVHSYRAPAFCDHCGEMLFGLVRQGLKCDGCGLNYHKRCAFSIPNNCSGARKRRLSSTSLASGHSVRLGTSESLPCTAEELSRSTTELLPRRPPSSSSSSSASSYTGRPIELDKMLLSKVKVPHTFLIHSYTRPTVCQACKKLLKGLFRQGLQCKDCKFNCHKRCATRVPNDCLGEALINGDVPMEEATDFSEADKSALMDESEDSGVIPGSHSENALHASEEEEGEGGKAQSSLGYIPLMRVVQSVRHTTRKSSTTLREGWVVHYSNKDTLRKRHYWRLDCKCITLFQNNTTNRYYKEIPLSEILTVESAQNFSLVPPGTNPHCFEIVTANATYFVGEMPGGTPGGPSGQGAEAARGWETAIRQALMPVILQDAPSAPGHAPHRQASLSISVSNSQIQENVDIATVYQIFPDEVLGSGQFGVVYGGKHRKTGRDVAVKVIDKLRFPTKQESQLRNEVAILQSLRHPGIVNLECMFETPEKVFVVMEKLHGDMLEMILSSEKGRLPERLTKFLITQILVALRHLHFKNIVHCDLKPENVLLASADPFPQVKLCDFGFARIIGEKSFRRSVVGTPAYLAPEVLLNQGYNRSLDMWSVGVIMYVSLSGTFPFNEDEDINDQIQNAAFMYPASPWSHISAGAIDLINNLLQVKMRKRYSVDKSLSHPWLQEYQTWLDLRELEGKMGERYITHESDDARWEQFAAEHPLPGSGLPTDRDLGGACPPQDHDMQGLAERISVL
Sequence of PAK1 (Q13153 whole entry): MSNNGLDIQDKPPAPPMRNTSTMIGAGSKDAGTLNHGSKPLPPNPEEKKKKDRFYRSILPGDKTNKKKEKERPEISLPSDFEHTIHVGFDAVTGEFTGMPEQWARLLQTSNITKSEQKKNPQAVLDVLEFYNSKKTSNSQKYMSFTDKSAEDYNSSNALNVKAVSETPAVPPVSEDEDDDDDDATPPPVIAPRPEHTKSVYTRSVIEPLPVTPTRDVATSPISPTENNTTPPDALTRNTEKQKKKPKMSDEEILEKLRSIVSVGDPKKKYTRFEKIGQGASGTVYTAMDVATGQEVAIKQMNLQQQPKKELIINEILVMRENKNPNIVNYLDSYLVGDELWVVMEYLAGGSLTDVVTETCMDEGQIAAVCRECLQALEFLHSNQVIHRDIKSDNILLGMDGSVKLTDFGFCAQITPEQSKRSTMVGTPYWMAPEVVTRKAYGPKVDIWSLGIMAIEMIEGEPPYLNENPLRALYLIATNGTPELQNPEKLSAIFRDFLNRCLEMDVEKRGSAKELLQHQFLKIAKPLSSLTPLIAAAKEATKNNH
Sequence of MST4 (Q9P289 whole entry): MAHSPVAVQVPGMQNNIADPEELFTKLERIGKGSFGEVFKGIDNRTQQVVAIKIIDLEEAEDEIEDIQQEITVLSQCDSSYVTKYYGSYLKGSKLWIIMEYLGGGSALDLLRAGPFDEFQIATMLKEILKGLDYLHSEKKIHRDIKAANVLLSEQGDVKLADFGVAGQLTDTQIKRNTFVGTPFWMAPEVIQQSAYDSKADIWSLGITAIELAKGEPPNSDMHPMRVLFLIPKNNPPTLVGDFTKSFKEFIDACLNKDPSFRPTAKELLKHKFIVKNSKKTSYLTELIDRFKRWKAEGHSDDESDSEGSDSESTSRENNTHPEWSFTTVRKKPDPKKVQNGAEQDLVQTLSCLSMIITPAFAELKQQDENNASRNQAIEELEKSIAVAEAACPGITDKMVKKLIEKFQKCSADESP
Sequence of FYN (P06241 whole entry): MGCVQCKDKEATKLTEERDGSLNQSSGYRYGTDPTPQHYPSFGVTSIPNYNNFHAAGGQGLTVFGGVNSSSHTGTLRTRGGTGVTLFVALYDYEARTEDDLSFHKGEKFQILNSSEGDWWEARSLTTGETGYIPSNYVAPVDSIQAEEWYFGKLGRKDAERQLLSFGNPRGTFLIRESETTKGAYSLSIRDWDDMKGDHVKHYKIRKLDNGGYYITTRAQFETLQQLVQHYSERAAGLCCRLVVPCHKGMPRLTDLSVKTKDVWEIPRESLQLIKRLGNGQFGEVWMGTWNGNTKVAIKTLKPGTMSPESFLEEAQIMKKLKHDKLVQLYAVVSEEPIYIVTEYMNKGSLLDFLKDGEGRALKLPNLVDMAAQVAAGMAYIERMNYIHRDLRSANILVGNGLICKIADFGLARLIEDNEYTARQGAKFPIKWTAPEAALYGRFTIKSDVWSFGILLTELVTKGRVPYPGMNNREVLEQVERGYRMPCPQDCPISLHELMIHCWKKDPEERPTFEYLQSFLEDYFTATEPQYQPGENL

With `Cc1ccc(C(=O)Nc2ccc(CN3CCN(C)CC3)c(C(F)(F)F)c2)cc1C#Cc1c(N)ncc2ccc(Cl)cc12` [HSN286], the inhibition at 0.5 µM came out at 95% on LYN B; 0% at CDK9/cyclin T1; 0% on TAOK1; 0% on CTK/MATK; 0% on ROCK1; 0% at TYK2. The inhibition at 0.5 µM was determined as 0% on KSR1; 0% at Aurora A; 0% on HIPK1; 7% at JNK1; 7% at CDK6/cyclin D3; 0% at PDK1/PDHK1. The inhibition at 0.5 µM on PKD2/PRKD2 amounted to 7%; on MST4 it was 0%; at CDK2/cyclin A, 0%; on HCK, 95%; on RSK2, 0%; at PAK1, 0%. The inhibition at 0.5 µM turned out to be 100% on RET; 96% on EPHA3; 92% on BRK; 81% on P38a/MAPK14; 0% at ZAP70; 0% at IRR/INSRR. Moreover, the inhibition at 0.5 µM worked out at 100% at FYN; 27% on MELK; 67% at JAK2; 0% at MEK1; 99% on FMS. The “Percentage kinase inhibition RAF1” value with RAF1 was 94%.

With `CN(C)CC(O)CNC(=O)c1ccc(C#Cc2c(N)ncc3ccc(Cl)cc23)cc1` (stereo not shown) [HSM1702], on LYN B, the “Percentage kinase inhibition LYN B” value turned out to be 0%. At CDK9/cyclin T1, the “Percentage kinase inhibition CDK9/cyclin T1” value came out at 41%. The “Percentage kinase inhibition TAOK1” value at TAOK1 is recorded as 12%. Further, at CTK/MATK, the “Percentage kinase inhibition CTK/MATK” value stood at 0%. Moreover, the “Percentage kinase inhibition ROCK1” value at ROCK1 turned out to be 0%. Further, at TYK2, the “Percentage kinase inhibition TYK2” value was 2%. Also, the “Percentage kinase inhibition KSR1” value at KSR1 amounted to 0%. Moreover, the “Percentage kinase inhibition Aurora A” value at Aurora A came out at 19%. On HIPK1, the “Percentage kinase inhibition HIPK1” value was 42%. The “Percentage kinase inhibition JNK1” value on JNK1 was 0%. Also, the “Percentage kinase inhibition CDK6/cyclin D3” value at CDK6/cyclin D3 was 50%. In the assay on RAF1, the “Percentage kinase inhibition RAF1” value turned out to be 5%. The “Percentage kinase inhibition c-Src” value at c-Src came out at 9%. Further, the “Percentage kinase inhibition PDK1/PDHK1” value on PDK1/PDHK1 worked out at 0%. Besides, the “Percentage kinase inhibition PKD2/PRKD2” value at PKD2/PRKD2 was 6%. Besides, the “Percentage kinase inhibition MST4” value at MST4 is reported as 0%. Further, the “Percentage kinase inhibition CDK2/cyclin A” value at CDK2/cyclin A was determined as 18%. For the same compound, at HCK, the “Percentage kinase inhibition HCK” value stood at 2%. On RSK2, the “Percentage kinase inhibition RSK2” value stood at 7%. In addition, on PAK1, the “Percentage kinase inhibition PAK1” value is given as 1%. Further, the “Percentage kinase inhibition RET” value at RET is reported as 15%. For the same compound, the “Percentage kinase inhibition EPHA3” value at EPHA3 amounted to 0%. In addition, the “Percentage kinase inhibition BRK” value on BRK stood at 18%. Also, the “Percentage kinase inhibition P38a/MAPK14” value at P38a/MAPK14 worked out at 0%. Besides, the “Percentage kinase inhibition ZAP70” value at ZAP70 amounted to 0%. For the same compound, on IRR/INSRR, the “Percentage kinase inhibition IRR/INSRR” value stood at 10%. Besides, the “Percentage kinase inhibition FYN” value at FYN came out at 16%. For the same compound, at MELK, the “Percentage kinase inhibition MELK” value is 12%. Also, the “Percentage kinase inhibition JAK2” value at JAK2 was 0%. Also, the “Percentage kinase inhibition MEK1” value on MEK1 is on record as 0%. Besides, on FMS, the “Percentage kinase inhibition FMS” value is reported as 35%.

Turning to `Cc1ccc(C(=O)Nc2ccc(CN3CCN(C)CC3)c(C(F)(F)F)c2)cc1C#Cc1cnc(N)c2ccccc12` [HSN334, 3-((1-aminoisoquinolin-4-yl)ethynyl)-4-methyl-N-(4-((4-methylpiperazin-1-yl)methyl)-3-(trifluoromethyl)phenyl)benzamide], in the assay on RAF1, the “Percentage kinase inhibition RAF1” value was found to be 96%. Also, the inhibition at 0.5 µM on RET was determined as 100%.

On to `COc1cc2nc(N)nc(C#Cc3cc(C(=O)Nc4ccc(CN5CCN(C)CC5)c(C(F)(F)F)c4)ccc3C)c2cc1OC` [HSN325], for which the inhibition at 0.5 µM amounted to 35% on LYN B; 0% on CDK9/cyclin T1; 0% on TAOK1; 5% at CTK/MATK; 3% on ROCK1; 0% at TYK2. Further, the inhibition at 0.5 µM at KSR1 stood at 0%; at Aurora A, 0%; at HIPK1, 0%; at JNK1, 0%; on CDK6/cyclin D3, 0%; at c-Src it was 30%. In addition, the inhibition at 0.5 µM on PDK1/PDHK1 was found to be 1%; at PKD2/PRKD2, 0%; at MST4, 0%; at CDK2/cyclin A it was 0%; at HCK, 18%; at RSK2 it was 0%. In addition, the inhibition at 0.5 µM stood at 0% at PAK1; 96% on RET; 6% at EPHA3; 0% at BRK; 5% at P38a/MAPK14; 0% on ZAP70. The inhibition at 0.5 µM at IRR/INSRR stood at 0%; on FYN, 10%; on MELK, 0%; on JAK2 it was 0%; at MEK1, 2%; on FMS, 93%.

For the compound `Cc1ccc(C(=O)Nc2ccc(CN3CCN(C)CC3)c(C(F)(F)F)c2)cc1C#Cc1cc(N)nc2ccccc12` [HSN285], the “Percentage kinase inhibition RAF1” value in the assay with RAF1 was 90%. The inhibition at 0.5 µM on c-Src was determined as 0%.

For `Cc1ccc(C(=O)Nc2ccc(CN3CCN(C)CC3)c(C(F)(F)F)c2)cc1C#Cc1cnc(N)c2ncccc12` [HSN356, 3-((8-amino-1,7-naphthyridin-5-yl)ethynyl)-4-methyl-N-(4-((4-methylpiperazin-1-yl)methyl)-3-(trifluoromethyl)phenyl)benzamide], the “Percentage kinase inhibition RAF1” value in the assay with RAF1 is 100%. The inhibition at 0.5 µM on RET turned out to be 100%.
